This passage reports IC50 and viability, T/C results from PubChem BioAssay AID1919017 (Molecular Pharmacology Branch, DTP, NCI, 2023).

In the experiment the test system is SW1271 complex spheroids with HUVEC/MSC, growth, % test/control. In words: Anticancer human tumor SW1271 cell line growth inhibition [AhR].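 As to all read-outs here: spheroids exposed to agents for 7 days before readout.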 The settings on record: for viability, T/C: stronger effect = lower value. A digest of the protocol:
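Agents were dosed in half-log steps down from roughly clinical Cmax, or from 10 microM where Cmax was unknown, alone and with AhR antagonists. Read-out: percent test/control growth of tumor spheroids containing HUVEC and MSC stromal cells.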

The structures appear in SMILES notation. Values joined by “and” are separate entries in the source; they are usually repeats but may differ in a detail not shown here. Equal values may be shown once.

Regarding `CC[C@@]1(O)C(=O)OCc2c1cc1n(c2=O)Cc2cc3c(CN(C)C)c(O)ccc3nc2-1` + CC(CO)NC(=O)c1cc(-c2ccc(Cl)cc2)nn(-c2cnn(C)c2)c1=O, the IC50 (curve of first compound, second compound 0.1 µM) is above 100 nM; the IC50 (curve of first compound, second compound 0.316 µM) is above 100 nM; the IC50 (curve of first compound, second compound 1 µM) is above 100 nM; the half-maximal inhibitory concentration (IC50) (curve of first compound, second compound 3.16 µM) was above 100 nM; the IC50 (curve of first compound, second compound 10 µM) was above 100 nM. Besides, the viability, T/C is 93.6% (second compound 0.1 µM, first compound 0.000316 µM); 91.3% (second compound 0.1 µM, first compound 0.001 µM); 75.2% (second compound 0.1 µM, first compound 0.00316 µM); 81.6% (second compound 0.1 µM, first compound 0.01 µM); 65.8% (second compound 0.1 µM, first compound 0.0316 µM); 58% (second compound 0.1 µM, first compound 0.1 µM). Besides, the viability, T/C by setting is: (second compound 0.316 µM, first compound 0.000316 µM) 92.9%; (second compound 0.316 µM, first compound 0.001 µM) 70.6%; (second compound 0.316 µM, first compound 0.00316 µM) 91.1%; (second compound 0.316 µM, first compound 0.01 µM) 87.4%; (second compound 0.316 µM, first compound 0.0316 µM) 68.2%; (second compound 0.316 µM, first compound 0.1 µM) 50.2%. The viability, T/C is 81% (second compound 1 µM, first compound 0.000316 µM); 73.6% (second compound 1 µM, first compound 0.001 µM); 84.4% (second compound 1 µM, first compound 0.00316 µM); 87% (second compound 1 µM, first compound 0.01 µM); 57.2% (second compound 1 µM, first compound 0.0316 µM); 62.8% (second compound 1 µM, first compound 0.1 µM). Also, the viability, T/C by setting is: (second compound 3.16 µM, first compound 0.000316 µM) 77.9%; (second compound 3.16 µM, first compound 0.001 µM) 85.2%; (second compound 3.16 µM, first compound 0.00316 µM) 69.8%; (second compound 3.16 µM, first compound 0.01 µM) 61.6%; (second compound 3.16 µM, first compound 0.0316 µM) 61.8%; (second compound 3.16 µM, first compound 0.1 µM) 53.5%. The viability, T/C (second compound 10 µM, first compound 0.000316 µM) was 75.8%; the viability, T/C (second compound 10 µM, first compound 0.001 µM) is 73.8%; the viability, T/C (second compound 10 µM, first compound 0.00316 µM) is 63.5%; the viability, T/C (second compound 10 µM, first compound 0.01 µM) is 69.3%; the viability, T/C (second compound 10 µM, first compound 0.0316 µM) is 60.2%; the viability, T/C (second compound 10 µM, first compound 0.1 µM) was 51.9%.

Regarding `O=C(c1cc(Cc2n[nH]c(=O)c3ccccc23)ccc1F)N1CCN(C(=O)C2CC2)CC1`, the viability, T/C is, setting by setting: (compound 0.0316 µM) 93% and 99.8% (2×); (compound 0.1 µM) 101% and 109% and 92.5%; (compound 0.316 µM) 90.8% and 96.5% and 82.1%; (compound 1 µM) 84.3% and 88.2% and 89.1%; (compound 3.16 µM) 80.5% and 98.7% and 74.1%; (compound 10 µM) 66% and 77.4% and 76.5%. The IC50 (curve of compound) was above 10000 nM.
